Source: article PMC6009888, “Design, synthesis, and pharmacological evaluation of 2-amino-5-nitrothiazole derived semicarbazones as dual inhibitors of monoamine oxidase and cholinesterase: effect of the size of aryl binding site” (Journal of Enzyme Inhibition and Medicinal Chemistry, 2017)
Entries after “also recorded” stand apart in the source; their conditions may differ. Like-named read-outs stand apart in the source and are kept apart here.

Key:
rat brain AChE = biological target: T1, rat brain AChE (Rattus norvegicus, UniProt P37136); assay: biochemical; type: biochemical; conditions: for IC50: rat brain AChE, ACTI substrate, mean ± SEM, triplicate
T1 construct: the resulting clear supernatants obtained were used as enzyme sources; from tissue; host or cells: rat brain cortex homogenate, 10,000 g supernatant
Experimental: Rat brain was used as a source of AChE enzyme. Rats were separately decapitated, the brain cortices quickly removed, weighed and homogenised in cold 10 mM Tris-HCl buffer, pH 7.2, containing 160 mM sucrose. The homogenates were centrifuged at 10,000 g for 10 min at 4 °C, and the resulting clear supernatants obtained were used as enzyme sources that were divided into aliquots and stored at −20 °C.
About 30 µl of enzyme sample (AChE) was added to 60 µl of 20 mM sodium phosphate buffer (pH 7.4) and were incubated in the presence of 30 µl of 10 mM DTNB solution with different concentrations of the test compounds. The enzyme reaction was initiated by the addition of 30 µl of 0.8 mM ACTI. The mixtures were incubated for 15 min at 25 °C. […] Control experiments were carried out without inhibitor, and blanks were run without AChE enzyme. All the assays were performed in triplicate. IC50 values were determined using the GraphPad Prism 5.0 (San Diego, CA) and the results were expressed as mean ± SEM.
(§1) 0, 15, 30 and 60 min at 25 °C in sodium phosphate buffer (20 mM, pH 7.4) and DTNB solution (10 mM). […] The reaction was further incubated at 25 °C for a further 15 min and the residual enzyme activities were measured and the bar graphs were constructed. All measurements were carried out in triplicate and are expressed as mean ± SEM.

mice = assay: Neurotoxicity screening (rotarod test); type: in vivo; conditions: for Neurotoxicity (animals that exhibit toxicity / animals tested): 30 mg/kg i.p.; for Neurotoxicity (verdict in words): 30 mg/kg, relative to phenytoin
Experimental: The neurotoxicity screening was undertaken according to the method followed by the National Institute of Health, using their reported procedures[55]^,[56]. Male albino mice (CF-1 strain or Swiss, 18–25 g) were used as experimental animals. The animals were housed in metabolic cages, and allowed free access to food and water. The test compounds were suspended in 0.5% methylcellulose/water mixture or in polyethylene glycol (PEG 200).
Minimal motor impairment was measured in mice by the rotarod test. The mice were trained to stay on an accelerating rotarod that rotates at six revolutions per minute. The rod diameter was 3.2 cm. Trained animals were given i.p. injection of the selected inhibitors at a dose of 30 mg/kg. Neurotoxicity was indicated by the inability of the animal to maintain equilibrium on the rod for at least 1 min in each of the three trials.

MAO-B = biological target: T2, MAO-B (Rattus norvegicus, UniProt P19643); assay: biochemical; conditions: for SI (selectivity index for MAO-B): ratio of experimental IC50(MAO-A)/IC50(MAO-B)
T2 construct: employing crude rat brain mitochondrial suspension; from tissue; host or cells: brain mitochondria of adult Wistar rats
T2 sequence (P19643 1-520): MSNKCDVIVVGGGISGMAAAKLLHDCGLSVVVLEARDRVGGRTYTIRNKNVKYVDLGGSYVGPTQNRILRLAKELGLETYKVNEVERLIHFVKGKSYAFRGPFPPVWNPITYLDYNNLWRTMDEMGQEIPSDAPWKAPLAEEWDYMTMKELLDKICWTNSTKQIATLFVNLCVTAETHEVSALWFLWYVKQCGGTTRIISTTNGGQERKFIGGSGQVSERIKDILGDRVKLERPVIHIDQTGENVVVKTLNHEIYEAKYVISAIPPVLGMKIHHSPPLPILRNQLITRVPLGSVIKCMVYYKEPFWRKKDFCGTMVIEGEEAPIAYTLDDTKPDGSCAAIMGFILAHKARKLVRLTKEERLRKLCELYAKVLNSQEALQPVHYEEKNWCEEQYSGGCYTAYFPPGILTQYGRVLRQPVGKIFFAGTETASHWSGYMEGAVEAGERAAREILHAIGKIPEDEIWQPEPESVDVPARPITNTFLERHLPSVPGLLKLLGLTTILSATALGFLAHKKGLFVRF
Experimental: Rat brain mitochondria were used as a source of MAO isoforms. All operations were carried out at 4 °C[50]. Male and female adult Wistar rats weighing 200–220 g were decapitated. All brains were rapidly removed and homogenised with a Potter–Elvehjem homogeniser in cold 0.32 M sucrose and 50 mM Tris-HCl, pH 8.2 (10:1, v/w). The homogenate was centrifuged twice at 1000 g for 5 min at 4 °C. The resulting supernatant was centrifuged at 20,000 g for 20 min. The mitochondrial pellet obtained was suspended in 100 mM sodium phosphate buffer, pH 7.4 (4:1, v/w), fractionated in plastic vials to 500 µl samples and stored at −80 °C. Before use, mitochondria were diluted with 100 mM sodium phosphate buffer to give a working solution of 0.80 mg of protein per millilitre.
The experiments were carried out under all the suitable laboratory conditions. […] An aliquot was made to contain mixture of 55 µl mitochondrial suspension (0.80 mg of protein/ml), 90 µl 50 mM Tris-HCl buffer, pH 8.2 and 30 µl solubilising solution (control or inhibitor solution at five different concentrations). The reaction was initiated by adding 25 µl of serotonin (4 mM, substrate for MAO-A) and 25 µl benzylamine (0.1 M, substrate for MAO-B) for the determination of MAO-A and MAO-B activity, respectively. The mixture was incubated at 37 °C for 30 min and the reaction was stopped by the addition of 50 µl of 1 N HCl. The absorbance associated with the production of 5-hydroxyindolacetic acid was measured at 280 nm for the estimation of MAO-A while for MAO-B estimation, the absorbance was measured at 250 nm due to the formation of benzaldehyde. All the assays were performed in triplicate. Control experiments were carried out without inhibitor and blanks were run without mitochondrial suspension.
Data are expressed as mean ± standard error mean (SEM) of experiments performed in triplicate.
as §1, with “37” for “25”, “Tris-HCl” for “sodium phosphate”, “(50” for “(20”, “8.2).” for “7.4) and DTNB solution (10 mM).”, “reactions were” for “reaction was”

[1] = read-out: AChE In vitro IC50 (µM) ± SEM
[2] = time-dependent inhibition, pre-incubation 0, 15, 30, 60 min

T1 sequence (P37136 32-614): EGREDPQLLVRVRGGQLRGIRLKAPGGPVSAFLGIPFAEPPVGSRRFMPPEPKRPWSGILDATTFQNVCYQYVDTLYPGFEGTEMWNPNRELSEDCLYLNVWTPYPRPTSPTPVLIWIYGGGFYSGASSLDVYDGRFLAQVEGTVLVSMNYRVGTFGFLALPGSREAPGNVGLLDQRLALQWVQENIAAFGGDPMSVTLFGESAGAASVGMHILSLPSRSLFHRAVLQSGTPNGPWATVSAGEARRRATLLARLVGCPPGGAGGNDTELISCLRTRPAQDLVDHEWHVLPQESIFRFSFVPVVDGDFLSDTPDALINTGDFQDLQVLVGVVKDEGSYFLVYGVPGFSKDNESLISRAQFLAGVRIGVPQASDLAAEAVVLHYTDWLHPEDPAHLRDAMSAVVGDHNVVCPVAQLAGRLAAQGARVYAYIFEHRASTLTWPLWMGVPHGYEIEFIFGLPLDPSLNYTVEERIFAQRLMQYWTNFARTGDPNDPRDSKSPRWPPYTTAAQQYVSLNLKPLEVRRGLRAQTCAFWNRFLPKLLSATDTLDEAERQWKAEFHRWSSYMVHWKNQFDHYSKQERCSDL

| Compound | Mode of AChE inhibition (rat brain AChE; Lineweaver–Burk plots, ACTI) | IC50 (rat brain AChE; [1]) [µM] | Reversibility of AChE inhibition (rat brain AChE; [2]) | Neurotoxicity (animals that exhibit toxicity / animals tested) (mice; 0.5 h) | Neurotoxicity (animals that exhibit toxicity / animals tested) (mice; 1 h) | Neurotoxicity (animals that exhibit toxicity / animals tested) (mice; 2 h) | Neurotoxicity (animals that exhibit toxicity / animals tested) (mice; 4 h) | Neurotoxicity (verdict in words) (mice) | IC50 (MAO-B) [nM] | SI (selectivity index for MAO-B) (MAO-B) | IC50 (rat brain AChE; AChE In vitro IC50 (µM) ± SEM) [µM] | AChE: fold increase in activity relative to compound 17 (rat brain AChE; diaryl analogues) [fold] | MAO-B: fold increase in activity relative to compound 17 (MAO-B; diaryl analogues) [fold] | Ki (MAO-B) [nM] | Mode of MAO-B inhibition (MAO-B; Lineweaver–Burk plots, benzylamine) | Reversibility of MAO-B inhibition (MAO-B; [2]) | AChE: fold decrease in activity versus bromo substitution (compound 4) (rat brain AChE; halogen at carbimino terminal phenyl ring) [fold] |
| --- | --- | --- | --- | --- | --- | --- | --- | --- | --- | --- | --- | --- | --- | --- | --- | --- | --- |
| O=C(NN=C1C(=O)Nc2ccc(Br)cc21)Nc1ncc([N+](=O)[O-])s1 [Compound 21, 1-(5-Bromo-2-oxoindolin-3-ylidene)-4–(5-nitrothiazol-2-yl)semicarbazide] | mixed-type | 0.264 | reversible | 1/4 | 0/4 | 0/4 | 0/4 | mildly neurotoxic; also recorded: slightly neurotoxic | 734 ± 6 | 77.94 | – | – | – | – | – | – | – |
| O=C(NN=C(c1ccc(Cl)cc1)c1ccc(Cl)cc1)Nc1ncc([N+](=O)[O-])s1 [Compound 19, 1-(Bis(4-chlorophenyl)methylene)-4-(5-nitrothiazol-2-yl)semicarbazide] | – | – | – | 0/4 | 0/4 | 0/4 | 0/4 | – | 1480 ± 63 | 34360.43 | 1.45 ± 0.047 | ~7.95 | ~19.32 | – | – | – | – |
| CC(=NNC(=O)Nc1ncc([N+](=O)[O-])s1)c1ccc(Br)cc1 [Compound 4, 1-(1-(4-Bromophenyl)ethylidene)-4-(5-nitrothiazol-2-yl)semicarbazide] | – | 0.34 ± 0.007 | – | 0/4 | 0/4 | 0/4 | 0/4 | non-neurotoxic | 212 ± 4 | 331.08 | – | – | – | 11700 ± 580 | competitive; also recorded: competitively | reversible | – |
| CC(=NNC(=O)Nc1ncc([N+](=O)[O-])s1)c1ccc(Cl)cc1 [Compound 5, 1-(1-(4-Chlorophenyl)ethylidene)-4-(5-nitrothiazol-2-yl)semicarbazide] | – | 356 ± 4.73 | – | 0/4 | 0/4 | 0/4 | 0/4 | – | 601 ± 15 | 7921.79 | – | – | – | – | – | – | > 1000 |
